Test results as given in patent US20090139433A1, “DENTAL MATERIALS BASED ON ALKYLENEDIAMINE-N,N,N',N'- TETRAACETIC ACID- (METH)ACRYLAMIDES” (Ivoclar Vivadent AG, priority 2007, published 2009).

Assay: Examination of the resistance to hydrolysis by 1H-NMR on storage
Assay type: physicochemical
Conditions: 20% solution in DMSO-d6/D2O (1:1); for hydrolysis products in the 1H-NMR spectrum at the start of the investigation: 37° C., at the start / immediately
Method: To examine the hydrolysis stabilities of the monomers MAM-EDTA and MA-EDTA, respectively, in each case a 20% solution in DMSO-d6/D2O (1:1) was stored at 37° C. At certain intervals, the ^1H-NMR spectra of these solutions were recorded. […] After 119 days' storage at 37° C., approx. 50% of the methacrylic ester groups had been hydrolyzed. In contrast, the monomer MAM-EDTA according to the invention was clearly more hydrolysis-resistant.

methacrylic ester groups hydrolyzed (after 119 days' storage at 37° C., 1H-NMR)	Substance	hydrolysis products in the 1H-NMR spectrum at the start of the investigation	additional double-bond signals in the 1H-NMR spectrum (after 119 days at 37° C.)
approx. 50%	EDTA-di(2-methacryloyloxyethyl)ester [MA-EDTA]	a second double-bond signal could be observed immediately	–
–	EDTA-di(5-methacrylamidopentyl)ester [MAM-EDTA]	no hydrolysis products could be recognized	no additional double-bond signals could be detected
